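Where inhibition never reached the appropriate level, the endpoint shown equals the highest concentration tested. Otherwise, values were interpolated linearly from a five-concentration, 48-hour dose response in 96-well plates. TGI: total growth inhibition.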
How the values were obtained:
Assay in all cases: inhibition of tumour cell growth, NCI panel, 48 h
A549 NSCLC = test system: A549 NSCLC
ACHN renal = test system: ACHN renal
CAKI-1 renal = test system: CAKI-1 renal
HCC-2998 colon = test system: HCC-2998 colon
HCT-15 colon = test system: HCT-15 colon
HS 578T breast = test system: HS 578T breast
HT29 colon = test system: HT29 colon
IGROV1 ovarian = test system: IGROV1 ovarian
KM12 colon = test system: KM12 colon
LOX IMVI melanoma = test system: LOX IMVI melanoma
M14 melanoma = test system: M14 melanoma
MCF7 breast = test system: MCF7 breast
MDA-MB-231 breast = test system: MDA-MB-231 breast
NCI-H226 lung = test system: NCI-H226 lung
NCI-H23 lung = test system: NCI-H23 lung
OVCAR-8 ovarian = test system: OVCAR-8 ovarian
SK-MEL-28 melanoma = test system: SK-MEL-28 melanoma
SK-MEL-5 melanoma = test system: SK-MEL-5 melanoma
SN12C renal = test system: SN12C renal
SNB-19 CNS = test system: SNB-19 CNS

Row | SMILES | TGI (A549 NSCLC) [µM] | TGI (ACHN renal) [µM] | TGI (CAKI-1 renal) [µM] | TGI (HCC-2998 colon) [µM] | TGI (HCT-15 colon) [µM] | TGI (HS 578T breast) [µM] | TGI (HT29 colon) [µM] | TGI (IGROV1 ovarian) [µM] | TGI (KM12 colon) [µM] | TGI (LOX IMVI melanoma) [µM] | TGI (M14 melanoma) [µM] | TGI (MCF7 breast) [µM] | TGI (MDA-MB-231 breast) [µM] | TGI (NCI-H226 lung) [µM] | TGI (NCI-H23 lung) [µM] | TGI (OVCAR-8 ovarian) [µM] | TGI (SK-MEL-28 melanoma) [µM] | TGI (SK-MEL-5 melanoma) [µM] | TGI (SN12C renal) [µM] | TGI (SNB-19 CNS) [µM]
1 | CC(C)CC1C(=O)NCCC(NC(=O)C(N)Cc2ccc(O)cc2)C(=O)NC(Cc2ccccc2)C(=O)NC(Cc2ccccc2)NC1=O (stereo not given) | > 100 | > 100 | > 100 | > 100 | > 100 | > 100 | > 100 | > 100 | > 100 | > 100 | > 100 | > 100 | > 100 | > 100 | > 100 | > 100 | > 100 | > 100 | > 100 | > 100
2 | COC(=O)c1ccccc1CC1Cc2ccc3c(c2C1)CCC3 (stereo not given) | > 100 | > 100 | > 100 | 45.7 | 55.3 | > 100 | 96.8 | > 100 | 92.1 | 31.1 | > 100 | 30.1 | 50.5 | > 100 | > 100 | > 100 | > 100 | 43.8 | > 100 | > 100
3 | COC(=O)c1ccccc1C1CN=NC12Cc1ccc(C)c(C)c1C2=O (stereo not given) | > 100 | > 100 | > 100 | > 100 | > 100 | > 100 | > 100 | > 100 | > 100 | > 100 | > 100 | > 100 | > 100 | > 100 | > 100 | > 100 | > 100 | > 100 | > 100 | > 100
4 | O=C(CCc1ccccc1)ON1C(=S)NC(c2ccccc2)(c2ccccc2)C1=S | > 100 | > 100 | > 100 | > 100 | > 100 | > 100 | 93.6 | 82.7 | 89.7 | 52.8 | > 100 | > 100 | > 100 | 93.1 | 97.6 | > 100 | > 100 | 40.6 | > 100 | > 100
5 | C=CC(c1ccccc1)[C@@]1(OC(C)=O)C(=O)C(=O)OC1C1COC(C)(C)O1 (stereo not given in full) | 34.5 | 18.6 | 11.7 | 32.8 | 24.9 | 68.3 | 46.2 | 31.9 | 29.5 | 16.2 | 25.5 | 22.8 | 28.5 | 37.6 | 42.9 | 27.9 | 24.6 | 29.7 | 21.7 | 42.7
6 | Cc1nc(Nc2ccccc2Cl)sc1C(=O)CC(=O)C(=O)Nc1c(Cl)cccc1Cl | > 100 | > 100 | > 100 | > 100 | > 100 | > 100 | > 100 | 63.5 | 91.4 | 85.8 | > 100 | > 100 | 42.9 | 49.7 | > 100 | 96.7 | 85.6 | > 100 | > 100 | > 100
7 | Cc1ccc(N=Nc2ccc(O)c(CN(C)C)c2)cc1C | > 100 | 60.1 | > 100 | 32.7 | 54 | 56.2 | 38.5 | 84.3 | 45.6 | 76.2 | 81.1 | > 100 | > 100 | > 100 | > 100 | > 100 | 44.7 | 28.4 | > 100 | > 100
8 | Cc1ccc(NC(=O)CSc2nc(C)nc3c2sc(=S)n3-c2ccccc2)cc1 | > 10 | > 10 | > 10 | > 10 | > 10 | 6.3 | > 10 | > 10 | > 10 | > 10 | > 10 | > 10 | > 10 | 9.43 | > 10 | > 10 | > 10 | > 10 | > 10 | > 10
9 | NNC(=O)c1ccccc1NC(=O)/C(=C/c1ccccc1O)NC(=O)c1ccccc1 | > 100 | 32.7 | 31.8 | > 100 | > 100 | 39.3 | > 100 | > 100 | > 100 | > 100 | > 100 | 39.2 | > 100 | > 100 | > 100 | 37.7 | > 100 | > 100 | > 100 | 79.7

From PubChem BioAssay (NCI)
